Experiments:
[1] = test system: Caco-2 cell monolayers; experiment: Epithelial permeability: transmission of FITC-insulin across cell monolayers (fluorescence microscopy); type: cell-based, human; conditions: cells co-cultured with the component; stained for Cld 4, E-cadherin, DAPI; result in words
From the text: Cell images of cells bound with nano/micro bubbles.
Enhanced epithelial permeability. Drug permeation may occur across the intestinal epithelium and through either transcellular or paracellular routes. To elucidate the precise mechanisms of interactions between the bubble carrier system and epithelial cells and its subsequent transport of the drug, the effects of DTPA and SDS on epithelial permeability were individually studied using Caco-2 cell monolayers. Monolayers of Caco-2 cells derived from human colorectal adenocarcinoma are widely used in in vitro models for predicting intestinal drug permeability.

[2] = test system: intestinal proteases; experiment: Inhibition of proteolytic degradation of insulin in isolated proximal small intestine (duodenum); type: biochemical; conditions: added to insulin; duodenum freshly isolated from rats; result in words
From the text: Inhibition of proteolytic degradation. Inhibiting the proteolytic degradation of insulin in the intestinal fluid and the mucosal layer is critical for increasing its oral bioavailability. The inhibiting effects of DTPA and SDS on intestinal proteases were separately studied in in vitro studies of the proximal portion of the small intestine (i.e., the duodenum) freshly isolated from rats. The various digestive enzymes secreted from the pancreas into the duodenum are well-recognized. […] Insulin is highly sensitive to trypsin and chymotrypsin, which are Ca^2+-dependent enzymes in the intestinal fluid and in the mucosal layer. One strategy for inhibiting intestinal protease activities is using complexing agents such as DTPA to remove essential metal ions (e.g., Ca^2+) from the enzyme structure at vicinity of the bioactive agent. […] Proposed molecular mechanisms of proteolytic inhibition by SDS include local conformational changes or altered charge distributions of the proteases induced by their specific binding of SDS.

With `O=C(O)CN(CCN1CC(=O)OC(=O)C1)CCN1CC(=O)OC(=O)C1` [DTPA dianhydride, diethylenetriaminepentaacetic dianhydride] the “transmission of FITC-insulin (pathway)” value [1] was “promote transmission of FITC-insulin via paracellular pathway”.
`O=C(O)CN(CCN(CC(=O)O)CC(=O)O)CCN(CC(=O)O)CC(=O)O` [DTPA, diethylene triamine pentaacetic acid] was tested, and the “protective effect on insulin against the intestinal proteases” value [2] was “strong protective effect”.
With `CCCCCCCCCCCCOS(=O)(=O)[O-].[Na+]` [SDS, sodium dodecyl sulfate] the “protective effect on insulin against the intestinal proteases” value [2] was “strong protective effect” and the “transmission of FITC-insulin (pathway)” value [1] was “promote transmission of FITC-insulin via both of paracellular pathway and transcellular pathway”.

From patent EP2974721A1, “A PHARMACEUTICAL COMPOSITION COMPRISING A GAS GENERATING INGREDIENT” (Nanomega Medical Corporation, priority 2014, dated 2016)
